Target: Voltage-gated inwardly rectifying potassium channel KCNH2 (Homo sapiens, UniProt Q12809)
Experiment: Displacement of [3H]dofetilide from human ERG potassium channel expressed in HEK293 cells

Voltage-gated inwardly rectifying potassium channel KCNH2, sequence (Q12809 whole entry): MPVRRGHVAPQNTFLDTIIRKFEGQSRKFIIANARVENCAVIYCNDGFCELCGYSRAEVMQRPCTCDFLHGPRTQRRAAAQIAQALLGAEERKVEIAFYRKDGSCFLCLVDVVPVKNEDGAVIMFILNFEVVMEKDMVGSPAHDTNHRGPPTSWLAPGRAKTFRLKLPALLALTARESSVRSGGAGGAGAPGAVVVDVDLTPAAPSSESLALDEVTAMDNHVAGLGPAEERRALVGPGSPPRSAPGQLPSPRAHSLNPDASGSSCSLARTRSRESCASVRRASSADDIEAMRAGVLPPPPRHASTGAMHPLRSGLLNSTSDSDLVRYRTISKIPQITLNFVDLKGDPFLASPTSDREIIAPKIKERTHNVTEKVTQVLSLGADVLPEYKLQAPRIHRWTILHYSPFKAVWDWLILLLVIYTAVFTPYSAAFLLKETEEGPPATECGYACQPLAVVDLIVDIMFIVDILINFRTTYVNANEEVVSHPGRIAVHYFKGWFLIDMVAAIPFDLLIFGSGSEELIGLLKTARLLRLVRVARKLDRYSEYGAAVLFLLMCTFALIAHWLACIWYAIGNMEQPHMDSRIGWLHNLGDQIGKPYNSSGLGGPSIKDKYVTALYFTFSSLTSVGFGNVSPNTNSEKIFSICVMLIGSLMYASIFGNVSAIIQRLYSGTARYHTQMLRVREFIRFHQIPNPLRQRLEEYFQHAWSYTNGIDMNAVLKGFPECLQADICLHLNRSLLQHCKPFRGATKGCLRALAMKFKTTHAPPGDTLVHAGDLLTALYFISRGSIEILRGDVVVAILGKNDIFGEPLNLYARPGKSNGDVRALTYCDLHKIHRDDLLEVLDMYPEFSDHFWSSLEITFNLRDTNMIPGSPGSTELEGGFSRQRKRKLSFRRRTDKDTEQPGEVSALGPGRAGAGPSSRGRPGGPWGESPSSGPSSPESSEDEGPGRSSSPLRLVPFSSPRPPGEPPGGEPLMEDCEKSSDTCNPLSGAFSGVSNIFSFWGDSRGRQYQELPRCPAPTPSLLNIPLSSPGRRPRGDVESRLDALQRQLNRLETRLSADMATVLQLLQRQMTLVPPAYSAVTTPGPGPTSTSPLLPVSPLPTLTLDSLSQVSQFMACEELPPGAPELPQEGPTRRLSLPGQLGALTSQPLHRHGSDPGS

| Compound | Ki [nM] |
| --- | --- |
| CCOC(=O)C1CCN(C(=N)c2ccc(C(=O)Nc3ccc(Cl)cc3C(=O)Nc3ccc(Cl)cn3)cc2)CC1 | 17 |
| N=C(c1ccc(C(=O)Nc2ccc(Cl)cc2C(=O)Nc2ccc(Cl)cn2)cc1)N1CCCC(C(=O)O)C1 (configuration not stated) | > 10000 |
| COC(=O)c1ccc(Oc2ccc(NC(=O)c3ccc(C(=N)N(C)C)cc3)c(C(=O)Nc3ccc(Cl)cn3)c2)cc1 | 570 |
| CN(C)C(=N)c1ccc(C(=O)Nc2ccc(Sc3ccc(C(=O)O)cc3)cc2C(=O)Nc2ccc(Cl)cn2)cc1 | 4600 |
| CN(C)C(=N)c1ccc(C(=O)Nc2ccc(Cl)cc2C(=O)Nc2ccc(Cl)cn2)c(N2CCCCC2C(=O)O)c1 (configuration not stated) | > 2000 |
| CN(C)C(=N)c1ccc(C(=O)Nc2ccc(Oc3ccc(C(=O)O)cc3)cc2C(=O)Nc2ccc(Cl)cn2)cc1 | > 10000 |
| Cc1cc(C(=O)Nc2ccc(C(=N)N3CCCC3)cc2)n(-c2cc3ccccc3cc2C(=O)O)n1 | > 10000 |
| CN(CC(=O)O)C(=N)c1ccc(C(=O)Nc2ccc(Cl)cc2C(=O)Nc2ccc(Cl)cn2)cc1 | 1400 |
| COC(=O)CCc1ccc(NC(=O)c2ccc(C(=N)N(C)C)cc2)c(C(=O)Nc2ccc(Cl)cn2)c1 | 790 |
| CN(CCCC(=O)O)C(=N)c1ccc(C(=O)Nc2ccc(Cl)cc2C(=O)Nc2ccc(Cl)cn2)cc1 | 1400 |
| CCOC(=O)C1CCN(C(=N)c2ccc(C(=O)Nc3c(OC)cc(Cl)cc3C(=O)Nc3ccc(Cl)cn3)c(F)c2)CC1 | 51 |
| CN(C)C(=N)c1ccc(C(=O)Nc2ccc(Sc3ccc(C(=O)N(C)C)cc3)cc2C(=O)Nc2ccc(Cl)cn2)cc1 | 370 |
| COc1cc(Cl)cc(C(=O)Nc2ccc(Cl)cn2)c1NC(=O)c1ccc(C(=N)N2CCC(C(=O)O)CC2)cc1F | > 10000 |
| CN(C)C(=N)c1ccc(C(=O)Nc2ccc(Cl)cc2C(=O)Nc2ccc(Cl)cn2)cc1 | 100 |
| CN(C)C(=N)c1ccc(C(=O)Nc2ccc(Cl)cc2C(=O)Nc2ccc(Cl)cn2)c(N2CCC(C(=O)O)CC2)c1 | > 10000 |
| C/C(=C(\F)C(=O)N(CC(=O)O)c1ccc(-c2ccccc2S(N)(=O)=O)cc1)c1cccc(C(=N)N)c1 | > 10000 |
| CN(C)C(=N)c1ccc(CN2C(=O)CN(S(=O)(=O)c3cc4cc(Cl)ccc4[nH]3)C[C@@H]2C(=O)O)cc1 | > 10000 |
| CN(C)C(=N)c1ccc(C(=O)Nc2ccc(Cl)cc2C(=O)Nc2ccc(Cl)cn2)c(N(C)CCCC(=O)O)c1 | > 6600 |
| Cc1cc(C(=O)Nc2ccc(-c3ccccc3CN3CCCCC3)cc2F)n(-c2cc3ccccc3cc2F)n1 | 1000 |
| CN1CCN=C1c1ccc(C(=O)N2CCN(S(=O)(=O)c3cc4ccc(Cl)cc4s3)CC2CC(=O)N2CCCC(C(=O)O)C2)cc1 (configuration not stated) | > 10000 |
| CN1CCN=C1c1ccc(C(=O)N2CCN(S(=O)(=O)c3cc4ccc(Cl)cc4s3)CC2CC(=O)N2CCOCC2)cc1 (configuration not stated) | 600 |
| CC(=N)N1CCC(Oc2ccc(N(Cc3ccc4ccc(C(=N)N)cc4c3)S(=O)(=O)CC(=O)O)cc2)CC1 [YM-60828] | > 10000 |
